Data published in the CheMixHub viscosity set.
Several values for one entry are separate records, joined by “and”; a condition that tells them apart may be missing. Equal entries are not always repeated.

Assay: xn = mol fraction of the nth substance listed

C[N+](C)(C)CCO.[Cl-] + OCCO
Settings | viscosity
293.15 K, 100 kPa, x1 = 0.333 | 40.01 mPa·s
293.15 K, 100 kPa, x1 = 0.34 | 59.14 mPa·s
293.15 K, 101 kPa, x1 = 0.333 | 42.3 mPa·s
293.15 K, 101 kPa, x2 = 0.7 | 56.22 mPa·s
293.15 K, 101.3 kPa, x2 = 0.6675 | 60 mPa·s
293.15 K, 101.3 kPa, x2 = 0.7 | 53.07 mPa·s
293.15 K, 101.3 kPa, x2 = 0.7499 | 37.35 mPa·s
293.15 K, 101.3 kPa, x2 = 0.7999 | 31.8 mPa·s
293.15 K, 101.3 kPa, x2 = 0.8332 | 28.49 mPa·s
293.15 K, 101.3 kPa, x2 = 0.8571 | 25.56 mPa·s
298 K, 100 kPa, x1 = 0.333 | 45.1 mPa·s
298 K, 101 kPa, x1 = 0.333 | 42 mPa·s
298.15 K, 100 kPa, x1 = 0.333 | 41 mPa·s and 32.73 mPa·s
298.15 K, 100 kPa, x1 = 0.34 | 47.74 mPa·s
298.15 K, 101 kPa, x1 = 0.2 | 20.1 mPa·s
298.15 K, 101 kPa, x1 = 0.333 | 35.1 mPa·s
298.15 K, 101.1 kPa, x1 = 0.333 | 39.45 mPa·s
298.15 K, 101.3 kPa, x2 = 0.6675 | 48.59 mPa·s
298.15 K, 101.3 kPa, x2 = 0.7 | 43.03 mPa·s
298.15 K, 101.3 kPa, x2 = 0.7499 | 31.12 mPa·s
298.15 K, 101.3 kPa, x2 = 0.7999 | 26.21 mPa·s
298.15 K, 101.3 kPa, x2 = 0.8332 | 23.36 mPa·s
298.15 K, 101.3 kPa, x2 = 0.8571 | 20.93 mPa·s
298.15 K, 101.33 kPa, x2 = 0.7 | 48 mPa·s
298.2 K, 101.3 kPa, x1 = 0.1247 | 20.5 mPa·s
298.2 K, 101.3 kPa, x1 = 0.1675 | 23.2 mPa·s
298.2 K, 101.3 kPa, x1 = 0.2 | 24.5 mPa·s
298.2 K, 101.3 kPa, x1 = 0.2513 | 27.2 mPa·s
303 K, 100 kPa, x1 = 0.333 | 36.8 mPa·s
303 K, 101 kPa, x1 = 0.3333 | 51.8 mPa·s
303.15 K, 100 kPa, x1 = 0.333 | 27.13 mPa·s and 52.15 mPa·s
303.15 K, 100 kPa, x1 = 0.34 | 39.1 mPa·s
303.15 K, 101 kPa, x1 = 0.333 | 33.1 mPa·s
303.15 K, 101 kPa, x2 = 0.7 | 35 mPa·s and 37.15 mPa·s
303.15 K, 101.3 kPa, x2 = 0.6675 | 39.78 mPa·s
303.15 K, 101.3 kPa, x2 = 0.7 | 35.06 mPa·s
303.15 K, 101.3 kPa, x2 = 0.7499 | 25.72 mPa·s
303.15 K, 101.3 kPa, x2 = 0.7999 | 21.7 mPa·s
303.15 K, 101.3 kPa, x2 = 0.8332 | 19.36 mPa·s
303.15 K, 101.3 kPa, x2 = 0.8571 | 17.34 mPa·s
308 K, 100 kPa, x1 = 0.333 | 30.8 mPa·s
308 K, 101 kPa, x1 = 0.3333 | 45.7 mPa·s
308.15 K, 100 kPa, x1 = 0.333 | 22.76 mPa·s
308.15 K, 100 kPa, x1 = 0.34 | 32.42 mPa·s
308.15 K, 101 kPa, x1 = 0.3333 | 30.9 mPa·s
308.15 K, 101.3 kPa, x2 = 0.6675 | 33.15 mPa·s
308.15 K, 101.3 kPa, x2 = 0.7 | 29.02 mPa·s
308.15 K, 101.3 kPa, x2 = 0.7499 | 21.63 mPa·s
308.15 K, 101.3 kPa, x2 = 0.7999 | 18.29 mPa·s
308.15 K, 101.3 kPa, x2 = 0.8332 | 16.22 mPa·s
308.15 K, 101.3 kPa, x2 = 0.8571 | 14.52 mPa·s
308.2 K, 101.3 kPa, x1 = 0.1247 | 15.3 mPa·s
308.2 K, 101.3 kPa, x1 = 0.1675 | 17.4 mPa·s
308.2 K, 101.3 kPa, x1 = 0.2 | 18.6 mPa·s
308.2 K, 101.3 kPa, x1 = 0.2513 | 20.7 mPa·s
313 K, 100 kPa, x1 = 0.333 | 26 mPa·s
313 K, 101 kPa, x1 = 0.333 | 23 mPa·s
313 K, 101 kPa, x1 = 0.3333 | 40.7 mPa·s
313.15 K, 100 kPa, x1 = 0.333 | 19.32 mPa·s and 41.27 mPa·s
313.15 K, 100 kPa, x1 = 0.34 | 27.44 mPa·s
313.15 K, 101 kPa, x1 = 0.333 | 26.3 mPa·s
313.15 K, 101 kPa, x1 = 0.3333 | 25.8 mPa·s
313.15 K, 101 kPa, x2 = 0.7 | 25.84 mPa·s
313.15 K, 101.3 kPa, x2 = 0.6675 | 27.77 mPa·s
313.15 K, 101.3 kPa, x2 = 0.7 | 24.22 mPa·s
313.15 K, 101.3 kPa, x2 = 0.7499 | 18.27 mPa·s
313.15 K, 101.3 kPa, x2 = 0.7999 | 15.52 mPa·s
313.15 K, 101.3 kPa, x2 = 0.8332 | 13.72 mPa·s
313.15 K, 101.3 kPa, x2 = 0.8571 | 12.3 mPa·s
318 K, 100 kPa, x1 = 0.333 | 21.6 mPa·s
318 K, 101 kPa, x1 = 0.3333 | 36.4 mPa·s
318.15 K, 100 kPa, x1 = 0.333 | 16.57 mPa·s
318.15 K, 100 kPa, x1 = 0.34 | 23.03 mPa·s
318.15 K, 101 kPa, x1 = 0.2 | 10.5 mPa·s
318.15 K, 101 kPa, x1 = 0.333 | 15.6 mPa·s
318.15 K, 101 kPa, x1 = 0.3333 | 21.9 mPa·s
318.15 K, 101.3 kPa, x2 = 0.6675 | 23.61 mPa·s
318.15 K, 101.3 kPa, x2 = 0.7 | 20.47 mPa·s
318.15 K, 101.3 kPa, x2 = 0.7499 | 15.68 mPa·s
318.15 K, 101.3 kPa, x2 = 0.7999 | 13.3 mPa·s
318.15 K, 101.3 kPa, x2 = 0.8332 | 11.67 mPa·s
318.15 K, 101.3 kPa, x2 = 0.8571 | 10.51 mPa·s
318.2 K, 101.3 kPa, x1 = 0.1247 | 11.4 mPa·s
318.2 K, 101.3 kPa, x1 = 0.1675 | 13.1 mPa·s
318.2 K, 101.3 kPa, x1 = 0.2 | 14.2 mPa·s
318.2 K, 101.3 kPa, x1 = 0.2513 | 16.3 mPa·s
323 K, 100 kPa, x1 = 0.333 | 18.8 mPa·s
323 K, 101 kPa, x1 = 0.333 | 16 mPa·s
323 K, 101 kPa, x1 = 0.3333 | 32.8 mPa·s
323.15 K, 100 kPa, x1 = 0.333 | 14.33 mPa·s and 33.33 mPa·s
323.15 K, 101 kPa, x1 = 0.333 | 21.2 mPa·s
323.15 K, 101 kPa, x1 = 0.3333 | 18.8 mPa·s
323.15 K, 101.3 kPa, x2 = 0.6675 | 20.3 mPa·s
323.15 K, 101.3 kPa, x2 = 0.7 | 17.41 mPa·s
323.15 K, 101.3 kPa, x2 = 0.7499 | 13.57 mPa·s
323.15 K, 101.3 kPa, x2 = 0.7999 | 11.5 mPa·s
323.15 K, 101.3 kPa, x2 = 0.8332 | 9.98 mPa·s
323.15 K, 101.3 kPa, x2 = 0.8571 | 9.07 mPa·s
